Test system: hepatitis C virus replicon NK-R2AN in Huh-7 cells
Experiment: microbe, parasite or virus in culture
Format: cell-based
Settings: Huh-7 cells containing replicon NK-R2AN, 48 hours, renilla luciferase activity relative to protein amount, read-out: HCV replicon inhibitory activity (EC50)

Q: `Cc1sc2nc(N3CCN(C(=O)c4ccccn4)CC3)nc(Nc3ccc(N4CCOCC4)cc3)c2c1C` [Example 1, 4-[5,6-dimethyl-4-(4-morpholin-4-yl-phenylamino)-thieno[2,3-d]pyrimidin-2-yl]-piperazin-1-yl-pyridin-2-yl-methanone] was tested. Which EC50 did it give?
A: 680 nM

Q: For `Cc1sc2nc(N3CCN(C(=O)c4cccnc4)CC3)nc(Nc3ccc(N4CCOCC4)cc3)c2c1C` [Example 2, 4-[5,6-dimethyl-4-(4-morpholin-4-yl-phenylamino)-thieno[2,3-d]pyrimidin-2-yl]-piperazin-1-yl-pyridin-3-yl-methanone], which EC50 is on record?
A: 450 nM

Q: How did the EC50 turn out when `Cc1sc2nc(N3CCN(C(=O)c4ccccn4)CC3)nc(Nc3ccc(N4CCOCC4)nc3)c2c1C` [Example 4, 4-[5,6-dimethyl-4-(6-morpholinopyridin-3-ylamino)-thieno[2,3-d]pyrimidin-2-yl]-piperazin-1-yl-pyridin-2-yl-methanone] was run?
A: 710 nM

Q: Which EC50 does the source give for `Cc1sc2nc(N3CCN(C(=O)c4ccncc4)CC3)nc(Nc3ccc(N4CCOCC4)cc3)c2c1C` [Example 3, 4-[5,6-dimethyl-4-(4-morpholin-4-yl-phenylamino)-thieno[2,3-d]pyrimidin-2-yl]-piperazin-1-yl-pyridin-4-yl-methanone] here?
A: 480 nM

Q: Which EC50 does the source give for `Cc1sc2nc(N3CCN(C(=O)c4cccnc4)CC3)nc(Nc3ccc(N4CCOCC4)nc3)c2c1C` [Example 5, 4-[5,6-dimethyl-4-(6-morpholinopyridin-3-ylamino)-thieno[2,3-d]pyrimidin-2-yl]-piperazin-1-yl-pyridin-3-yl-methanone] here?
A: 510 nM

— patent publication US7816351B2, “5,6-dimethylthieno[2,3-di] pyrimidine derivatives, the preparation method thereof and the pharmaceutical composition comprising the same for anti-virus” (Equispharm Co., Ltd, priority 2005, dated 2010)
